≈ marks a conversion by molar mass, not a printed value. Where “and” joins values, the source holds several entries; their conditions need not be identical. Identical values can stand only once.
Legend:
[1] = test system: M. tuberculosis H37Rv; assay: DHNA rescue of growth of treated M. tuberculosis; format: cell-based, Mycobacterium tuberculosis; conditions: DHNA 100 μg/ml added to the media; compound at 2xMIC
[2] = Cytotoxicity assays; format: cell-based
[3] = test system: nonreplicating M. tuberculosis (NRP-MTB); conditions: against NRP-MTB; cited from earlier work
[4] = test system: MenE; assay: Direct MenE inhibition assay; format: biochemical; conditions: MenE 100 nM; data not shown
[5] = target: T1, MenB (Mycobacterium tuberculosis, UniProt P9WNP5); assay: Steady state kinetics of MenB inhibition; format: biochemical; conditions: steady state kinetic methods
[6] = target: T1, MenB; assay: biochemical; conditions: for ability to inhibit MenB: analogues still able to undergo elimination
[7] = test system: M. tuberculosis H37Rv; assay: Antibacterial activity; format: cell-based, Mycobacterium tuberculosis; conditions: in words

T1 sequence (P9WNP5 whole entry): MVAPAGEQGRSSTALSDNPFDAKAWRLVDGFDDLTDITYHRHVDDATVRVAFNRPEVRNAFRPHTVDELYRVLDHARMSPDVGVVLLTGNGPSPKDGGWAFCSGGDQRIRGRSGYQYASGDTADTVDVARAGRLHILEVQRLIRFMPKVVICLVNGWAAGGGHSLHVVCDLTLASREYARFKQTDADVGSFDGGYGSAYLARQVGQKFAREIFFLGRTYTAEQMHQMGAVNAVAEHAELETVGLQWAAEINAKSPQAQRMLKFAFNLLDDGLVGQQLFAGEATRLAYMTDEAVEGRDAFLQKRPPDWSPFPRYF

For `COC(=O)/C=C/C(=O)c1ccc(Cl)cc1` [Compound 3b, 4-Oxo-4-chlorophenylbutenoyl methyl ester], the “rescue of growth by DHNA” value [1] was “rescue the growth” and the selectivity ratio [2] was over 20.

In the case of `CO[C@H]1/C=C/O[C@@]2(C)Oc3c(C)c(O)c4c(O)c(c(/C=N/N5CCN(C)CC5)c(O)c4c3C2=O)NC(=O)/C(C)=C\C=C\[C@H](C)[C@H](O)[C@@H](C)[C@@H](O)[C@@H](C)[C@H](OC(C)=O)[C@@H]1C` [rifampicin], the MIC [3] is listed as 0.4 µg/mL (≈ 0.486 µM).

In the case of `CC(NC(CC(=O)c1ccc(F)cc1)C(=O)O)c1ccccc1` (stereo not drawn) [Compound 1548L21], the “concentration up to which MenE was not inhibited” value [4] is reported as over 300 µM.

With `CC(C)(COP(=O)(O)OP(=O)(O)OC[C@H]1O[C@@H](n2cnc3c(N)ncnc32)[C@H](O)[C@@H]1OP(=O)(O)O)[C@@H](O)C(=O)NCCC(=O)NCCSC(CC(=O)c1ccc(Cl)cc1)C(=O)O` (stereo partly drawn) [Compound 7] the “mode of MenB inhibition” value [5] was “noncompetitive (mixed)”.

For `CC(C)(COP(=O)(O)OP(=O)(O)OC[C@H]1O[C@@H](n2cnc3c(N)ncnc32)[C@H](O)[C@@H]1OP(=O)(O)O)[C@@H](O)C(=O)NCCC(=O)NCCSC(CC(=O)c1ccccc1Cl)C(=O)O` (stereo partly drawn) [Compound 10], the “mode of MenB inhibition” value [5] was “noncompetitive (mixed)”.

With `[2H]C([2H])(C(=O)c1ccccc1Cl)C(N[C@@H](C)c1ccccc1)C(=O)O` (stereo partly drawn) [Compound 8S] the “ability to inhibit MenB” value [6] was “retained the ability to inhibit MenB”.

With `COC(=O)/C=C/C(=O)c1ccc(F)cc1` [Compound 2b] the “rescue of growth by DHNA” value [1] was “rescue the growth” and the selectivity ratio [2] was over 20.

For `O=C(O)/C=C/C(=O)c1ccc(Cl)cc1` [Compound 3a], the antibacterial activity [7] was “limited antibacterial activity” and the “change of IC50 for MenB inhibition with CoA concentration” value ([6]; data not shown) was “decreased as the concentration of CoA increased”.

In the case of `CC(C)(COP(=O)(O)OP(=O)(O)OC[C@H]1O[C@@H](n2cnc3c(N)ncnc32)[C@H](O)[C@@H]1OP(=O)(O)O)[C@@H](O)C(=O)NCCC(=O)NCCSC(CC(=O)c1ccc(Cl)cc1Cl)C(=O)O` (stereo partly drawn) [Compound 16], the IC50 ([6]; IC50, 2-CoA-4-oxo-4-phenylbutanoic acids and analogues, Table 2) is reported as ~100 nM and 100 nM and the “mode of MenB inhibition” value [5] is reported as “noncompetitive (mixed)”.

With `CC(C)(COP(=O)(O)OP(=O)(O)OC[C@H]1O[C@@H](n2cnc3c(N)ncnc32)[C@H](O)[C@@H]1OP(=O)(O)O)[C@@H](O)C(=O)NCCC(=O)NCCSCCC(=O)c1ccc(Cl)cc1Cl` [Compound 18] the “concentration up to which MenB was not (significantly) inhibited” value [6] was over 400 µM.

With `CC(C(=O)c1ccc(Cl)cc1)C(N[C@@H](C)c1ccccc1)C(=O)O` (stereo partly drawn) [Compound 7S] the “ability to inhibit MenB” value [6] was “retained the ability to inhibit MenB”.

From publication PMC3259734 (ACS medicinal chemistry letters, 2011)
